Earlier results in US20250381239A1, “METHOD FOR IMPROVING SLEEP QUALITY OR INCREASING SLEEP DURATION AND METHOD FOR RELIEVING PSYCHOLOGICAL STRESS” (TOYO SHINYAKU CO., LTD., priority 2024, published 2025).

Key:
[1] = system: mice; conditions: water immersion restraint test
[2] = system: mice; conditions: mice subjected only to psychological stress

| Structure (SMILES) | Effect on physical stress ulcers [1] | Effect on psychological stress ulcers [2] |
| --- | --- | --- |
| NC(N)=Nc1nc(CSCCC(N)=NS(N)(=O)=O)cs1 [famotidine] | effective | no effect |
| CCN1CCCC1CNC(=O)c1cc(S(N)(=O)=O)ccc1OC (stereo not shown) [sulpiride] | no effect | effective |
